Bliss interaction score and fitness data for eight compounds are collected here from the supplement of paper PMC10627819.

Assay [1] relates to S. aureus DSM 20231. The assay can be described thus: Bliss interaction score (quartile over a dose matrix) (fitness difference); higher = more antagonism (negative = synergy). Put shortly: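 Values were capped at 1 after dividing OD595 at stationary-phase entry by the plate's robust no-drug mean. This ratio is fitness, and single-drug fitness was inferred from the combination data. The Bliss score is observed minus product-expected fitness, given as quartiles over technical, biological and donor/recipient replicates.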

Assay [2] has as its system S. aureus DSM 20231. Nature of the assay: fitness (endpoint OD595 vs no drug) (fraction); higher = more growth. Put shortly: (§1)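 Bacterial fitness was scored as optical density at the stationary-phase transition relative to the robust mean of no-drug control wells. Scores are capped at 1. The growth data were OD595 readings every 30 min for 14 h at 37 °C, background-subtracted against the first reading, from 384-well plates inoculated at OD595 0.01 in TSB, LB Lennox or CY.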

A further assay relates to S. aureus Newman. The assay is described as above. Put shortly: as §1
The test system of the next assay is S. pneumoniae D39V. The description is as above. A digest of the protocol:
as §1

The next assay relates to B. subtilis 168. The description is as above. Put shortly:
as §1

The mark [3] stands for this setting: first compound 0.125 µg/mL, partner 0.0156 µg/mL.
Where [4] appears, read: first compound 0.125 µg/mL, partner 0.0312 µg/mL.
[5] abbreviates: first compound 0.125 µg/mL, partner 0.0625 µg/mL.
Where [6] appears, read: first compound 0.25 µg/mL, partner 0.0156 µg/mL.
Setting [7] is: first compound 0.25 µg/mL, partner 0.0312 µg/mL.
[8] abbreviates: first compound 0.25 µg/mL, partner 0.0625 µg/mL.
Where [9] appears, read: first compound 0.5 µg/mL, partner 0.0156 µg/mL.
The mark [10] stands for this setting: first compound 0.5 µg/mL, partner 0.0312 µg/mL.
The mark [11] stands for this setting: first compound 0.5 µg/mL, partner 0.0625 µg/mL.

SMILES strings stand for the structures.
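Wherever Bliss interaction score (quartile over a dose matrix) is given: first quartile when negative (synergy) and third quartile when positive (antagonism).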

Consider `Cc1cc(NS(=O)(=O)c2ccc(N)cc2)no1` [Sulfamethoxazol] + CCCSc1nc(N[C@@H]2C[C@H]2c2ccc(F)c(F)c2)c2nnn([C@@H]3C[C@H](OCCO)[C@@H](O)[C@H]3O)c2n1 [Ticagrelor], for which the Bliss interaction score with S. aureus DSM 20231 [1] was 0.254.
Same read-out and setting: the same measure for `Cc1onc(-c2ccccc2)c1C(=O)N[C@@H]1C(=O)N2[C@@H]1SC(C)(C)[C@@H]2C(=O)O` [Oxacillin] + CCCSc1nc(N[C@@H]2C[C@H]2c2ccc(F)c(F)c2)c2nnn([C@@H]3C[C@H](OCCO)[C@@H](O)[C@H]3O)c2n1 [Ticagrelor]: 0.171.
Turning to `CNC(C)C1CCC(N)C(OC2C(N)CC(N)C(OC3OCC(C)(O)C(NC)C3O)C2O)O1` (centres undefined) [Gentamicin] + CCCSc1nc(N[C@@H]2C[C@H]2c2ccc(F)c(F)c2)c2nnn([C@@H]3C[C@H](OCCO)[C@@H](O)[C@H]3O)c2n1 [Ticagrelor], the Bliss interaction score with S. aureus DSM 20231 [1] (main component drawn) was -0.576.
Same read-out and setting: to `CNC(C)C1CCC(N)C(OC2C(N)CC(N)C(OC3OCC(C)(O)C(NC)C3O)C2O)O1` (centres undefined) [Gentamicin] + O=C(O)Cc1cc(I)c(Oc2ccc(O)c(I)c2)c(I)c1 [Tiratricol] belongs 0.264.
Regarding `CN(C)CCCN1c2ccccc2Sc2ccc(Cl)cc21` [Chlorpromazine] + CN(C)C(=O)C(CCN1CCC(O)(c2ccc(Cl)cc2)CC1)(c1ccccc1)c1ccccc1 [Loperamide], the Bliss interaction score in the assay with S. aureus DSM 20231 [1] is -0.311.
As to `CNC(C)C1CCC(N)C(OC2C(N)CC(N)C(OC3OCC(C)(O)C(NC)C3O)C2O)O1` (centres undefined) [Gentamicin] + CC(C)Cc1ccc(C(C)C(=O)O)cc1 [Ibuprofen], the Bliss interaction score in the assay with S. aureus DSM 20231 [1] (main component drawn) was -0.442.
As for `CC[C@H]1OC(=O)[C@H](C)[C@@H](O[C@H]2C[C@@](C)(OC)[C@@H](O)[C@H](C)O2)[C@H](C)[C@@H](O[C@@H]2O[C@H](C)C[C@H](N(C)C)[C@H]2O)[C@](C)(O)C[C@@H](C)CN(C)[C@H](C)[C@@H](O)[C@]1(C)O` [Azithromycin] + CO[C@@]12[C@H](COC(N)=O)C3=C(C(=O)C(C)=C(N)C3=O)N1C[C@@H]1N[C@@H]12 [Mitomycin C], the fitness amounted to 0.674 with S. aureus DSM 20231 [2] (setting [3]); 0.661 in the assay on S. aureus DSM 20231 [2] (setting [4]); 0.547 in the assay on S. aureus DSM 20231 [2] (setting [5]); 0.701 in the assay with S. aureus DSM 20231 [2] (setting [6]); 0.664 with S. aureus DSM 20231 [2] (setting [7]); 0.491 with S. aureus DSM 20231 [2] (setting [8]). Besides, the fitness in the assay with S. aureus DSM 20231 [2] (setting [9]) stood at 0.366; in the assay on S. aureus DSM 20231 [2] (setting [10]), 0.314; in the assay on S. aureus DSM 20231 [2] (setting [11]), 0.171; in the assay on S. aureus Newman (setting [3]), 0.719; in the assay on S. aureus Newman (setting [4]), 0.671; in the assay with S. aureus Newman (setting [5]), 0.559. The fitness in the assay on S. aureus Newman (setting [6]) came to 0.726; in the assay with S. aureus Newman (setting [7]), 0.638; in the assay with S. aureus Newman (setting [8]), 0.551; in the assay on S. aureus Newman (setting [9]), 0.561; in the assay with S. aureus Newman (setting [10]), 0.53; in the assay with S. aureus Newman (setting [11]) it was 0.365.
On to `O=C(O)[C@H]1/C(=C/CO)O[C@@H]2CC(=O)N21` [Clavulanic acid] + COc1ccc(C[C@H](N)C(=O)N[C@H]2[C@@H](O)[C@H](n3cnc4c(N(C)C)ncnc43)O[C@@H]2CO)cc1 [Puromycin], for which the fitness with S. aureus Newman (first compound 0.03125 µg/mL, partner 0.39 µg/mL, one replicate) was 0.952; in the assay with S. aureus Newman (first compound 0.03125 µg/mL, partner 0.78 µg/mL, one replicate), 0.91; with S. aureus Newman (first compound 0.03125 µg/mL, partner 1.56 µg/mL, one replicate) it was at least 1; in the assay with S. aureus Newman (first compound 0.0625 µg/mL, partner 0.39 µg/mL, one replicate), at least 1; in the assay on S. aureus Newman (first compound 0.0625 µg/mL, partner 0.78 µg/mL, one replicate), at least 1; in the assay with S. aureus Newman (first compound 0.0625 µg/mL, partner 1.56 µg/mL, one replicate), 0.99. In addition, the fitness in the assay with S. aureus Newman (first compound 0.125 µg/mL, partner 0.39 µg/mL, one replicate) was 0.89; in the assay on S. aureus Newman (first compound 0.125 µg/mL, partner 0.78 µg/mL, one replicate), 0.901; in the assay on S. aureus Newman (first compound 0.125 µg/mL, partner 1.56 µg/mL, one replicate), 0.894; in the assay with S. pneumoniae D39V (first compound 0.5 µg/mL, partner 1 µg/mL), at least 1; with S. pneumoniae D39V (first compound 0.5 µg/mL, partner 2 µg/mL) it was 0.931; in the assay with S. pneumoniae D39V (first compound 1 µg/mL, partner 1 µg/mL), 0.937. Further, the fitness is 0.891 in the assay on S. pneumoniae D39V (first compound 1 µg/mL, partner 2 µg/mL); 0.528 in the assay with S. pneumoniae D39V (first compound 1 µg/mL, partner 4 µg/mL); 0.72 in the assay with S. pneumoniae D39V (first compound 2 µg/mL, partner 1 µg/mL); 0.793 with S. pneumoniae D39V (first compound 2 µg/mL, partner 2 µg/mL); 0.919 in the assay on B. subtilis 168 (first compound 1.5 µg/mL, partner 0.39 µg/mL); 0.995 in the assay with B. subtilis 168 (first compound 1.5 µg/mL, partner 0.78 µg/mL). Besides, the fitness in the assay on B. subtilis 168 (first compound 1.5 µg/mL, partner 1.56 µg/mL) is 0.888; in the assay on B. subtilis 168 (first compound 3 µg/mL, partner 0.39 µg/mL) it was 0.872; in the assay on B. subtilis 168 (first compound 3 µg/mL, partner 0.78 µg/mL), 0.871; with B. subtilis 168 (first compound 3 µg/mL, partner 1.56 µg/mL), 0.851; in the assay with B. subtilis 168 (first compound 6 µg/mL, partner 0.39 µg/mL) it was 0.787; in the assay with B. subtilis 168 (first compound 6 µg/mL, partner 0.78 µg/mL) it was 0.76. Besides, the fitness with B. subtilis 168 (first compound 6 µg/mL, partner 1.56 µg/mL) is 0.775.
